Data published in patent US20120003335A1, “CONSTITUTIVE ANDROSTANE RECEPTOR (CAR) AS A THERAPEUTIC TARGET FOR OBESITY AND TYPE TWO DIABETES” (UNIVERSITY OF PITTSBURGH-OF THE COMMONWEALTH SYSTEM OF …, priority 2008, published 2012).

Assays:
[1] = system: C57BL/6J mice fed with high fat diet (HFD); test: Prevention of high fat diet-induced obesity (body weight, MRI body composition); format: in vivo; details: male mice, HFD five weeks, 0.5 mg/kg once a week
Description: Eight-week male C57BL/6J mice were fed with high fat diet (HFD) for five weeks and simultaneously treated with the CAR agonist TCPOBOP (0.5 mg/kg, once a week) or vehicle (DMSO). […] The effect of TCPOBOP on the fat mass was so dramatic that the differences were obvious and significant after one week of drug treatment (FIGS. 1A-b and 1A-c). At the end of five-week treatment, the body weight differences between TCPOBOP group and vehicle group were completely accountable by the gain of fat mass in the TCPOBOP group (FIG. 1B).

[2] = system: C57BL/6J female mice fed with HFD; test: Treatment of pre-existing HFD-induced obesity; format: in vivo
Description: To determine whether CAR activation is effective in controlling obesity in mice with pre-existing obesity, C57BL/6J female mice were fed with HFD for six weeks, followed by 6 weeks of TCPOBOP (0.5 mg/kg, once a week) treatment when mice remained on HFD.

ob/ob mice [3] = test: Obesity in genetically leptin deficient ob/ob mice; format: in vivo
Excerpt: TCPOBOP was also effective in the genetically leptin deficient and obese ob/ob mice. In this experiment, 7-week old female ob/ob mice were maintained in chow diet and treated with TCPOBOP or vehicle for eight weeks.

[4] = system: HFD-fed C57BL/6J male mice; test: Insulin sensitivity by GTT and ITT, HFD-fed mice; format: in vivo; details: five weeks treatment
Excerpt: (§1) Since obesity is strongly associated with insulin resistance, a typical characteristic of type two diabetes, whether the CAR agonist can also improve insulin sensitivity was examined. […] The insulin sensitizing effect of TCPOBOP was also evident in ob/ob mice (FIGS. 3C and 3D).

ob/ob mice [5] = test: Insulin sensitivity by GTT and ITT, ob/ob mice; format: in vivo
Excerpt: as §1

HFD-fed C57BL/6j mice = test: Fasting serum glucose and lipid profile, HFD-fed mice; format: in vivo
Excerpt: as §1

ob/ob mice [6] = test: Fasting serum glucose and lipid profile, ob/ob mice; format: in vivo
Excerpt: as §1

[7] = system: lipogenic genes (Srebp-1c, Acc-1, Fas, Scd-1) and gluconeogenic enzymes (G6p, Pepck); test: Lipogenic and gluconeogenic gene expression in tissues of HFD-fed mice; format: in vivo
Excerpt: To understand the mechanisms by which CAR inhibits obesity and improves insulin sensitivity, gene expression was profiled in several relevant tissues, including the liver, skeletal muscle, white adipose tissue (WAT) and brown adipose tissue (BAT) in HFD-fed C57BL/6J mice treated with TCPOBOP for one week.
Since excessive VLDL production and triglyceride secretion contribute to the pathogenesis of hypertriglyceridemia, obesity and diabetes, VLDL secretion rate after a 5-week TCPOBOP treatment also was evaluated. […] The inhibition of VLDL secretion was consistent with the lower serum triglyceride level (data not shown) and inhibition of hepatic lipogenesis (FIG. 5A) in these animals.

HFD-fed mice [8] = test: Hepatic steatosis, adipose tissue size and adipocyte morphology; format: in vivo; details: treated five weeks
HFD-fed mice [9] = test: VLDL secretion rate; format: in vivo; details: after 5-week treatment
CAR-/- mice = test: Lipogenic and gluconeogenic gene expression in CAR-/- mice; format: in vivo; details: C57BL/6J and SvJ129 mixed background, HFD five week
Excerpt: The suppression of lipogenic and gluconeogenic gene expression was also seen in TCPOBOP-treated wild type mice of C57BL/6J and SvJ129 mixed background (data not shown).

[10] = system: BAT genes involved in energy expenditure; test: BAT energy expenditure gene expression and oxygen consumption; set-up: species or system mice; details: mouse, in vivo
Excerpt: BAT plays an important role in regulating energy expenditure. The smaller BAT in TCPOBOP-treated mice prompted an examination of the expression of BAT genes involved in energy expenditure.

[11] = system: PPARα and its target genes; test: Expression of beta-oxidation genes in liver and skeletal muscle; format: in vivo, mice
Excerpt: (§2) The effect of TCPOBOP on the fatty acid oxidation in the liver and skeletal muscle also was investigated. […] These include the suppression of long-chain acyl-CoA dehydrogenase (Aacdl), medium-chain acyl CoA dehydrogenase (Acadm) and HMG-CoA synthase (HMGCS2).

[12] = system: gastrocnemius muscle derived from HFD-fed mice; test: Mitochondrial β-oxidation rate in gastrocnemius muscle ([14C]-oleate)
Excerpt: as §2

[13] = system: adipose triglyceride lipase (ATGL), hormone sensitive lipase (HSL); test: Lipase expression in WAT; set-up: species or system mice; details: mouse, in vivo
HFD-fed mice [14] = test: Leptin and adiponectin production and food intake; format: in vivo
Excerpt: Leptin is an adipokine primarily produced in WAT. […] HFD induced leptin mRNA expression as expected (FIG. 8A). […] The decreased production of leptin may have resulted from decreased fat mass, and the inhibition of food intake may have contributed to the anti-obesity effect.

Cyp2b10 = details: 0.5 mg/kg once a week
[15] = HFD-fed C57BL/6J mice, treated one week
[16] = short-term (one week) treatment

With `Clc1cnc(Oc2ccc(Oc3ncc(Cl)cc3Cl)cc2)c(Cl)c1` [TCPOBOP, 1,4-bis[2-(3,5 dichloropyridyloxy)] benzene] the “lean mass, TCPOBOP vs vehicle group” value [1] was “not significantly different”, the “gain of body weight” value ([1]; after two weeks of drug treatment, vs vehicle (DMSO)) was “significantly inhibited gain of body weight” and the “lean to body weight ratio” value ([1]; ratio decreased in vehicle-treated mice) was “remained steady”. The “gain of fat mass (MRI)” value ([1]; vs vehicle) was “significantly inhibited the gain of fat mass”, the fat mass ([2]; HFD six weeks, then 6 weeks 0.5 mg/kg once a week on HFD) was “inhibition of gain of fat mass” and the body weight course ([2]; HFD six weeks, then 6 weeks 0.5 mg/kg once a week on HFD, vehicle group continued to gain) was “stabilized the mouse body weight”. For the same molecule, the “body weight vs vehicle group” value ([2]; after 5 weeks of drug treatment) was “significantly lower than the vehicle group”, the “gain of fat mass” value (ob/ob mice [3]; 7-week old female ob/ob mice, chow diet, eight weeks treatment) was “less gain of fat mass” and the “body weight vs vehicle group” value (ob/ob mice [3]; end of eight week treatment) was “significantly lower body weight”. The fat mass (ob/ob mice [3]; end of eight week treatment) was “deceased fat mass”, the lean mass (ob/ob mice [3]; end of eight week treatment) was “increased lean mass” and the “insulin sensitivity (GTT and ITT)” value [4] was “significantly improved insulin sensitivity”. For the same molecule, the “insulin sensitizing effect (GTT and ITT)” value (ob/ob mice [5]) was “also evident”, the “Fasting Glucose” value (HFD-fed C57BL/6j mice) was 102.8 ± 17.7 mg/dL and the “Free Fatty Acid” value (HFD-fed C57BL/6j mice; fasting serum) was 6.8 ± 0.6 µM. The Insulin (HFD-fed C57BL/6j mice; fasting serum) was 1.57 ± 0.37 ng/mL, the “Total Cholesterol” value (HFD-fed C57BL/6j mice; fasting serum) was 89.7 ± 5.3 mg/dL and the “Total Triglyceride” value (HFD-fed C57BL/6j mice; fasting serum) was 132.8 ± 17.7 mg/dL. For the same molecule, the “Free Fatty Acid” value (ob/ob mice [6]) was 21.4 ± 1.54 µM, the “Total Cholesterol” value (ob/ob mice [6]) was 90.2 ± 9.9 mg/dL and the “Total Triglyceride” value (ob/ob mice [6]) was 126.3 ± 13.7 mg/dL. For the same molecule, the “Fas and Scd-1 gene expression in skeletal muscle, BAT and WAT” value [7, 15] was “Significant inhibition”, the “expression of Acc-1 in BAT” value [7, 15] was “significantly inhibited” and the “expression of lipogenic genes Srebp-1c, Acc-1, Fas and Scd-1 in the liver” value [7, 15] was “suppressed the expression of lipogenic genes”. For the same molecule, the “expression of glucose-6-phosphatase (G6p) and phosphoenolpyruvate carboxykinase (Pepck)” value ([7]; after 5-week treatment) was “significantly inhibited”, the adipocyte morphology (HFD-fed mice [8]) was “adipocyte hypotrophy” and the hepatic steatosis (HFD-fed mice [8]) was “ameliorated hepatic steatosis”. The “sizes of abdomen WAT and BAT” value (HFD-fed mice [8]) was “decreased sizes of abdomen WAT and BAT”, the “VLDL secretion rate vs vehicle group” value (HFD-fed mice [9]) was “significantly reduced” and the “expression of lipogenic and gluconeogenic genes in liver, skeletal muscle, WAT, BAT” value (CAR-/- mice) was “none of the lipogenic and gluconeogenic genes was significantly altered”. The “BAT expression of PGC-1b, mCPT-I, LCAD, D2, UCP-1, UCP-2 and UCP-3” value [10] was “significantly increased”, the oxygen consumption [10] was “increased oxygen consumption” and the “expression of PPARα and its target genes involved in β-oxidation and ketogenesis, liver and skeletal muscle” value ([11]; chronic (five weeks) treatment) was “significantly suppressed”. For the same molecule, the “expression of PPARα” value [11, 16] was “modestly suppressed”, the “expression of genes related to β-oxidation” value [11, 16] was “little effect” and the “substrate switch on addition of pyruvate” value ([12]; pyruvate added to incubation buffer, vehicle mitochondria failed to switch) was “showed significant switch”. For the same molecule, the “accumulation of radiolabeled intermediates in the acid-soluble metabolite (ASM) (incomplete β-oxidation)” value ([12]; vs vehicle group) was “much more dramatic reduction”, the “rate of [14C]-oleate oxidation to CO2 (complete β-oxidation)” value ([12]; vs vehicle group) was “modest, although significant, decrease” and the “expression of adipose triglyceride lipase (ATGL) in WAT” value [13] was “induced in WAT”. The “expression of hormone sensitive lipase (HSL) in WAT” value [13] was “but not the hormone sensitive lipase (HSL)”, the expression of adiponectin (HFD-fed mice [14]; HFD-fed mice) was “increased expression of adiponectin” and the “leptin mRNA level vs vehicle-treated counterparts” value (HFD-fed mice [14]; HFD-fed mice) was “dramatically lower”. For the same molecule, the “leptin production at the protein level” value (HFD-fed mice [14]; HFD-fed mice) was “decreased leptin production”, the food intake (HFD-fed mice [14]; mouse, in vivo) was “significantly reduced the food intake” and the “Cyp2b10 gene expression in the liver” value (Cyp2b10) was “activation of Cyp2b10”.
